The target in test [1] is T1, Protein mono-ADP-ribosyltransferase PARP10 (Homo sapiens, UniProt Q53GL7).
T1 sequence (Q53GL7 whole entry): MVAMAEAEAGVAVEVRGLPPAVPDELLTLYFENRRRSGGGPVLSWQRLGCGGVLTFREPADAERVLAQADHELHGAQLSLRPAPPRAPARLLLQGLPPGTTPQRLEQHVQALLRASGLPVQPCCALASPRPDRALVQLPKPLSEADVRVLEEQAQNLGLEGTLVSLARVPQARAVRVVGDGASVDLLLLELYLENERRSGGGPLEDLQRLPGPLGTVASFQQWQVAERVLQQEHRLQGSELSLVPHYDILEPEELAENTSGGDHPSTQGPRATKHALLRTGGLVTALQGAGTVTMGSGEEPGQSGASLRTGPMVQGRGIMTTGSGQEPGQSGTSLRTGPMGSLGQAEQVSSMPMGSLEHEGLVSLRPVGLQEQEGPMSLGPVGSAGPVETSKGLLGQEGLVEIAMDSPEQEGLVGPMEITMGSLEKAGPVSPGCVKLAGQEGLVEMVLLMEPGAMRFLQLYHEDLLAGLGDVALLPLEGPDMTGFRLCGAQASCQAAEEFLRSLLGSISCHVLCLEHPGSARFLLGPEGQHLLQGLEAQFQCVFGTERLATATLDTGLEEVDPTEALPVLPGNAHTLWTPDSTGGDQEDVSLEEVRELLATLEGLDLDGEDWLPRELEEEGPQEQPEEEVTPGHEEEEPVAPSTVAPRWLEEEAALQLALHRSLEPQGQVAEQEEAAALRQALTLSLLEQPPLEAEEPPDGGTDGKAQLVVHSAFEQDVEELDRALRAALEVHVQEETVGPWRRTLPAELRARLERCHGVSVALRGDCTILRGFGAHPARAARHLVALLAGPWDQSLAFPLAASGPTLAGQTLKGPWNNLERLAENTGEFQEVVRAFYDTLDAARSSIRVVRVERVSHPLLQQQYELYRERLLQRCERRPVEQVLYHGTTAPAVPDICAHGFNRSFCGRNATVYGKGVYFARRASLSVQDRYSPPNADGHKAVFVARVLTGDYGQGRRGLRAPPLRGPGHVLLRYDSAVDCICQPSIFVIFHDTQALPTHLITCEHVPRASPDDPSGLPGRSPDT
As to the kind of experiment: Inhibition of human PARP-10 using NAD+ as substrate incubated for 10 mins by fluorescence based analysis.

The target in test [2] is T2, Protein mono-ADP-ribosyltransferase PARP16 (Homo sapiens, UniProt Q8N5Y8).
T2 sequence (Q8N5Y8 whole entry): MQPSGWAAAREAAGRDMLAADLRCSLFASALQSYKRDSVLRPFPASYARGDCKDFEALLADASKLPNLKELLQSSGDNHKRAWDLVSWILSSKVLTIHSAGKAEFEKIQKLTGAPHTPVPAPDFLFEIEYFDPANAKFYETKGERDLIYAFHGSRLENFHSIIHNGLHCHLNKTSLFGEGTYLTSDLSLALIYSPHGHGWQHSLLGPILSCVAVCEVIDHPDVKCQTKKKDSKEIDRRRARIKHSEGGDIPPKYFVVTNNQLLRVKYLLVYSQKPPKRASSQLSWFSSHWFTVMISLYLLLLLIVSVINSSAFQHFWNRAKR
Briefly: Inhibition of human PARP16.

Test [3] deals with Protein mono-ADP-ribosyltransferase PARP14 (Homo sapiens, UniProt Q460N5). Briefly: Inhibition of human PARP14 using NAD+ as substrate incubated for 10 mins by fluorescence based analysis.
Protein mono-ADP-ribosyltransferase PARP14, sequence (Q460N5 whole entry): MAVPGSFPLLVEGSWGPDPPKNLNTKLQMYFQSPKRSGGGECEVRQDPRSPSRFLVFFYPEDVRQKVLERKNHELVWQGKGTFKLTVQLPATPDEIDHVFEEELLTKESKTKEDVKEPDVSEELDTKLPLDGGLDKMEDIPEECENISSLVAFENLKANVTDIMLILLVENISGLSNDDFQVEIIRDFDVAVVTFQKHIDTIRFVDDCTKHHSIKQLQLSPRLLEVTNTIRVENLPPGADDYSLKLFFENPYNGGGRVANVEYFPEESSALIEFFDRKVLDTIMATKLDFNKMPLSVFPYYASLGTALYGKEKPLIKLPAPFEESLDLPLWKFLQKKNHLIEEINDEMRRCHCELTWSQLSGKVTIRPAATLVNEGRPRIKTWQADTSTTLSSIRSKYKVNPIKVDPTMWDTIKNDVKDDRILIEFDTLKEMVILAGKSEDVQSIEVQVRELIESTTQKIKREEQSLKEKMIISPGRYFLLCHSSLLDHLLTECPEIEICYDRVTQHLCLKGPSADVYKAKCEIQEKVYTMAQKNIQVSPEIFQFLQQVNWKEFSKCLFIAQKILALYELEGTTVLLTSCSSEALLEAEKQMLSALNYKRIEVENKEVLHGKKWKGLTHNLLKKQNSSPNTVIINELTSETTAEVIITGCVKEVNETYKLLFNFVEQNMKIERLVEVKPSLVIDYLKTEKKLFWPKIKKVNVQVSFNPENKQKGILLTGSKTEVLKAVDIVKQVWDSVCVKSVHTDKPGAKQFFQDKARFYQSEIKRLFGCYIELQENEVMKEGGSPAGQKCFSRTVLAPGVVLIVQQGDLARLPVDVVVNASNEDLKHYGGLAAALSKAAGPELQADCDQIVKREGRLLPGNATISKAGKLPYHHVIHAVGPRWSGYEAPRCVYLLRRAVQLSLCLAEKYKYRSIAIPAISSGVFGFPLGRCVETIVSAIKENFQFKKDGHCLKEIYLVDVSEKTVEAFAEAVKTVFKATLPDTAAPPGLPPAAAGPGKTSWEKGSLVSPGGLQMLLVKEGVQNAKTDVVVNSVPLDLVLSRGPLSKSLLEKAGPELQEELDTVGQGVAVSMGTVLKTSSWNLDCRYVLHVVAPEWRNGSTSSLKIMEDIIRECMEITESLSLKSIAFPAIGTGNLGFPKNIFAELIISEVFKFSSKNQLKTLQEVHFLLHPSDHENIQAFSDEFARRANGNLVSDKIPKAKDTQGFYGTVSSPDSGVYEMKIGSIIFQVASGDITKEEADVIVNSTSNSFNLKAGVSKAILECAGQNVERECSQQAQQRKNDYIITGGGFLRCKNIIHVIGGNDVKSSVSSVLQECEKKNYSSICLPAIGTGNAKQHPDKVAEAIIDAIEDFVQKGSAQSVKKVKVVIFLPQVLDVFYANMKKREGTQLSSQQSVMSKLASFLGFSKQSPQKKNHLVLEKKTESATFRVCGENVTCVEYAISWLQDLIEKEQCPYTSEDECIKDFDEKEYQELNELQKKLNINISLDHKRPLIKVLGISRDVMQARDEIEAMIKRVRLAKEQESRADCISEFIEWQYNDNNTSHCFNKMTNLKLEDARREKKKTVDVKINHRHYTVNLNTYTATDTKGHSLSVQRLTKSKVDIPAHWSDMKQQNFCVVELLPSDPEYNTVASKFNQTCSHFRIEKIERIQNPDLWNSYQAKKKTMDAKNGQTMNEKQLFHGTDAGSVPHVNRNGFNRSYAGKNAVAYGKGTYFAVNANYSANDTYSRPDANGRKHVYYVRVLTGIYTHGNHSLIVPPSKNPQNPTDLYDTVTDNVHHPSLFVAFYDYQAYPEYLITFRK
Test [4] has as its target T3, Protein mono-ADP-ribosyltransferase PARP12 (Homo sapiens, UniProt Q9H0J9).
T3 sequence (Q9H0J9 whole entry): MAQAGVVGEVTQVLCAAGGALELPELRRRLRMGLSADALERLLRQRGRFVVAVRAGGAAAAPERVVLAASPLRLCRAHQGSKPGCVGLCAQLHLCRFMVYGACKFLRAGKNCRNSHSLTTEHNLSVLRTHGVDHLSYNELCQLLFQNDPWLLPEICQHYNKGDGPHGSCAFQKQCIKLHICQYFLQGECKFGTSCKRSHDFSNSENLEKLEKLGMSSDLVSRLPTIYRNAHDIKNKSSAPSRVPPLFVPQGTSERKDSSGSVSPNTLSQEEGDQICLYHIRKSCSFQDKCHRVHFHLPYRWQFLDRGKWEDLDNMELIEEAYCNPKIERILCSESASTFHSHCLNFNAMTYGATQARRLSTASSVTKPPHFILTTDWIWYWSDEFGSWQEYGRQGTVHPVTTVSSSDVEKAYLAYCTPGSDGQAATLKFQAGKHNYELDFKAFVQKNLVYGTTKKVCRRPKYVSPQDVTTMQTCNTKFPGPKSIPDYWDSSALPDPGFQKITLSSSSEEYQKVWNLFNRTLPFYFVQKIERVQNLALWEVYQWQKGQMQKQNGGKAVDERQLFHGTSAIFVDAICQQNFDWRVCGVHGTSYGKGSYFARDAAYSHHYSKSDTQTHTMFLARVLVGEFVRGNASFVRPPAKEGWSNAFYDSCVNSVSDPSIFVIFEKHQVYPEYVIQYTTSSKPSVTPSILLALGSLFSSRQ
As to the kind of experiment: Inhibition of human PARP12.

For the molecule `NC(=O)c1ccc(OCC2CCC2)cc1`, the IC50 in test [1] is 0.29 µM; in test [2], over 10 µM; in test [3] it was over 10 µM; in test [4], over 10 µM.

Source of the values: ChEMBL document CHEMBL5120855, “Potent 2,3-dihydrophthalazine-1,4-dione derivatives as dual inhibitors for mono-ADP-ribosyltransferases PARP10 and PARP15” (Eur J Med Chem, 2022).
